7 molecules from paper PMC11808397, “Development of selective nanomolar cyclic peptide ligands as GBA1 enzyme stabilisers” (RSC Chemical Biology, 2025) can be followed below.

Structures are written as SMILES. Positions of bridges follow the written chain, without caps; N, C: chain ends. Non-standard residues stand in square brackets, D forms with d. Residues, ends and D or L forms follow the SMILES beside them.

In this experiment the target is T1, GBA1 in fibroblast lysates (Homo sapiens, UniProt P04062).
T1 construct: host or cells: human dermal fibroblasts
T1 sequence (P04062 40-536): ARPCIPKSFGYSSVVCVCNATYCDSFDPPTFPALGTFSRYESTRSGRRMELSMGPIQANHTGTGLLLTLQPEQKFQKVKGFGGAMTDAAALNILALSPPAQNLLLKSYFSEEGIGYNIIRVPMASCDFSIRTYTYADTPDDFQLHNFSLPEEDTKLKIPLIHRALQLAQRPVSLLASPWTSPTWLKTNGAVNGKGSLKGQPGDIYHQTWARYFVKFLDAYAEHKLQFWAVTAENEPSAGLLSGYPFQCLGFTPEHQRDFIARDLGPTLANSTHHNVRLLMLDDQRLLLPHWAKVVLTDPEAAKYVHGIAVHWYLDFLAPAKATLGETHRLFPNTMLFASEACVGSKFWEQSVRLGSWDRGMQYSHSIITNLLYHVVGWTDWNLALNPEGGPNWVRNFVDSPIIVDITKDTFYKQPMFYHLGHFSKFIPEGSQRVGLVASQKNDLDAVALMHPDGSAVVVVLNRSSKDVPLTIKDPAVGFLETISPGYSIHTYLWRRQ
Kind of experiment: GBA1 inhibition in lysates of fibroblasts treated with peptides. The experiment is classed as cell-based. Particulars: cells treated with peptides at increasing concentrations for 16 h, washed with PBS and homogenized; 4-MU assay. The protocol:
We further investigated GBA1 inhibition in cells. Human dermal fibroblasts were initially incubated with peptide concentrations ranging from 0.1 μM (from 0.001 μM for L4, D1 and D12) to 100 μM of each cyclic peptide for […]. […] To further confirm the inability of these peptides to cross the cell membrane, we conducted in situ competitive activity-based protein profiling (cABPP) experiments using RAW 264.7 monocyte/macrophage-like cells. […] RAW 264.7 cells were then treated with increasing concentrations of cyclic peptides (0, 0.1, 1, 10, and 100 μM) for 4 hours, followed by exposure to a cell-penetrant Bodipy red broad spectrum GBA activity-based probe (ABP), JJB75[58] at 10 nM for 2 hours (Fig. S5 for chemical structures, ESI ^†). […] This cABPP experiment further confirms that the peptides are unable to cross the cell membrane (Fig. S6, ESI ^†).
Selective Cyclic Peptide Ligands as GBA1 Stabilizers Katzy et al. […]
Table S1. IC50 values for GBA1 inhibition in fibroblast lysates. Cells were treated with the peptides at increasing concentrations for 16 h, washed with PBS and homogenized. Reported values are mean ± standard deviation from 3 technical triplicates. N.D.: not determined.
Peptide GBA1 in fibroblast lysates
(1 picture or pasted object on this page, not shown here) […]
2.6. In situ cell studies
Human fibroblasts (Cambrex-Lonza CC-2511) were cultured in complete DMEM/F12 growth medium supplemented with 10% (v/v) foetal calf serum and 0.1 % (w/v) penicillin/streptomycin at 37 °C and 5% CO2. Cells were seeded in 12-well plates during passage and the incubations were started when cells were 80% - 100% confluent. Peptides were added in 500 µL medium (10 and 50 µM final concentration) and incubated overnight. After incubation cells were washed three times with cold PBS and harvested in 30 µL lysis buffer (25 mM KPi, pH 6,5 supplemented with 0.1% Triton-X 100 (v/v) and protease inhibitor). Lysates were frozen at -80 °C until use. GlcCer and GlcSph lipids were quantified as described below. In parallel, enzyme activity in cell lysates was measured using 3.7 mM 4-methylumbeliferone (4MU)-β-D-glucopyranoside in 150 mM McIlvaine buffer pH 5.2 supplemented with 0.1% bovine serum albumin (BSA) (w/v), 0.1% Triton X-100 (v/v), and 0.2% sodium taurocholate (w/v) as described above (see Table S1). […]
PBS and harvested in ice cold water. Lysates were kept at -80 °C until extraction.
2.7. 2.5. GlcCer and GlcSph lipid analysis
Levels of GlcCer and GlcSph were determined with a modified acidic Bligh & Dyer extraction (Figure 2 and S5).7 Briefly, after addition of internal standards (C17-dh-Ceramide and 13C5-Glucosylsphingosine), lipids were separated in an organic and an aqueous phase. The separated phases were dried under N2 or in a concentrator. The dried organic lower phase was reconstituted in 0.1 M NaOH in MeOH and underwent microwave-assisted deacylation. After neutralization, the samples were dried. Both phases were further extracted and desalted with equal amounts of water and butanol. The butanol phases were taken up to dryness and the lipids were dissolved in MeOH and transferred to MS vials for analysis in a LC-MS/MS system as described previously.7
2.8. Thermostability assays in rhGBA (Cerezyme)
Varying concentrations of peptides were incubated with 1 µM rhGBA1 in 20 mM HEPES pH 7.0 with 100 mM NaCl, with a final DMSO concentration of 0.5 %, for 2 hours at room temperature. Melting
Take `CC[C@H](C)[C@H](NC(=O)[C@H](CC(C)C)NC(=O)[C@H](Cc1ccc(O)cc1)NC(=O)[C@H](Cc1ccc(O)cc1)NC(=O)[C@@H]1CSCC(=O)N[C@H](Cc2ccc(O)cc2)C(=O)N[C@@H](CCCNC(=N)N)C(=O)N[C@@H](C(C)C)C(=O)N1)C(=O)N[C@H](C(=O)N[C@H](C(=O)N[C@@H](CC(C)C)C(=O)N[C@@H](CC(=O)O)C(=O)N[C@@H](CS)C(N)=O)C(C)C)[C@@H](C)O` [D1] ({CH2CO}-[dY]RVCYYLITVLDC-NH2; thioether N-4): the IC50 (usually the concentration that gives 50% inhibition) stood at 440 nM.

`CC[C@H](C)[C@@H]1NC(=O)[C@H](Cc2ccc(O)cc2)NC(=O)CSC[C@@H](C(N)=O)NC(=O)[C@H](Cc2c[nH]c3ccccc23)NC(=O)[C@H](CCC(N)=O)NC(=O)[C@H]([C@@H](C)CC)NC(=O)[C@H]([C@@H](C)CC)NC(=O)[C@@H]2CCCN2C(=O)[C@H](C(C)C)NC(=O)[C@H](Cc2ccc(O)cc2)NC(=O)[C@H](Cc2c[nH]c3ccccc23)NC(=O)[C@H](CO)NC1=O` [L6] ({CH2CO}-YISWYVPIIQWC-NH2; thioether N-12): the IC50 is 22300 nM.

For `CC[C@H](C)[C@@H]1NC(=O)[C@H](CO)NC(=O)[C@H](CS)NC(=O)CNC(=O)CNC(=O)[C@H](CC(C)C)NC(=O)[C@H](Cc2ccc(O)cc2)NC(=O)[C@H](C(C)C)NC(=O)[C@H](CC(C)C)NC(=O)[C@H](CCCNC(=N)N)NC(=O)[C@@H]2CCCN2C(=O)[C@H](Cc2ccc(O)cc2)NC(=O)CSC[C@@H](C(N)=O)NC(=O)[C@H](CCC(=O)O)NC(=O)[C@H](CC(C)C)NC(=O)[C@H](CC(C)C)NC1=O` [L1] ({CH2CO}-YPRLVYLGGCSILLEC-NH2; thioether N-16), the midpoint of inhibition, the IC50, lay at 39700 nM.

For `CC(C)C[C@H](NC(=O)[C@@H](NC(=O)[C@H](CCCNC(=N)N)NC(=O)[C@@H]1CSCC(=O)N[C@H](Cc2ccc(O)cc2)C(=O)N[C@@H]([C@@H](C)O)C(=O)N2CCC[C@H]2C(=O)NCC(=O)N[C@@H](Cc2ccc(O)cc2)C(=O)N[C@@H](C(C)C)C(=O)N[C@@H](Cc2ccc(O)cc2)C(=O)N1)C(C)C)C(=O)N[C@@H](CCCCN)C(=O)N[C@@H](Cc1ccc(O)cc1)C(=O)N[C@@H](CS)C(N)=O` [D8] ({CH2CO}-[dY]TPGYVYCRVLKYC-NH2; thioether N-8), half-maximal inhibition (IC50) was put at 5160 nM.

`CC(C)C[C@@H]1NC(=O)CNC(=O)[C@H](CC(C)C)NC(=O)[C@@H](Cc2ccc(O)cc2)NC(=O)CSC[C@@H](C(N)=O)NC(=O)[C@H](CO)NC(=O)[C@H](CCCCN)NC(=O)[C@H](CC(C)C)NC(=O)[C@H](Cc2ccccc2)NC(=O)[C@H](CCCNC(=N)N)NC(=O)[C@H](Cc2ccc(O)cc2)NC(=O)[C@H](Cc2c[nH]c3ccccc23)NC1=O` [D12] ({CH2CO}-[dY]LGLWYRFLKSC-NH2; thioether N-12) gave an IC50 of 334 nM.

On to `CC(C)C[C@@H]1NC(=O)CNC(=O)[C@H](Cc2ccccc2)NC(=O)[C@H](CC(C)C)NC(=O)[C@@H]2CCCN2C(=O)[C@H](Cc2ccc(O)cc2)NC(=O)CSC[C@@H](C(=O)N2CCC[C@H]2C(=O)N[C@@H](CC(N)=O)C(=O)N[C@@H](Cc2c[nH]c3ccccc23)C(=O)N[C@@H](Cc2ccccc2)C(=O)N2CCC[C@H]2C(=O)N[C@@H](Cc2ccc(O)cc2)C(=O)N[C@@H](CCC(N)=O)C(=O)N[C@@H](CS)C(N)=O)NC(=O)[C@H](CO)NC(=O)[C@H](Cc2ccccc2)NC1=O` [L4] ({CH2CO}-YPLFGLFSCPNWFPYQC-NH2; thioether N-9), for which the IC50 was 67 nM.

`CC[C@H](C)[C@H](NC(=O)[C@H](CCCNC(=N)N)NC(=O)[C@@H]1CSCC(=O)N[C@@H](Cc2ccc(O)cc2)C(=O)N[C@@H](C)C(=O)N[C@@H](Cc2ccc(O)cc2)C(=O)N[C@@H](Cc2c[nH]c3ccccc23)C(=O)N[C@@H](Cc2c[nH]c3ccccc23)C(=O)N[C@@H](CC(C)C)C(=O)N1)C(=O)N1CCC[C@H]1C(=O)N[C@@H](Cc1c[nH]c2ccccc12)C(=O)N[C@@H](CC(C)C)C(=O)N[C@@H](CO)C(=O)N[C@H](C(N)=O)C(C)C` [L2] ({CH2CO}-YAYWWLCRIPWLSV-NH2; thioether N-7): the IC50 came to 898 nM.
